Source: patent publication US20250114374A1, “BCL-2 INHIBITORS” (Newave Pharmaceutical Inc., priority 2021, published 2025)
Structures can show the parent of a compound that is named as a salt.

Test system: RS4; 11 with G101V mutation
Assay: In vitro anti-proliferation assay (ATPlite luminescence) in BCL-2-dependent ALL cell line RS4;11 with G101V mutation
Type: cell-based
Conditions: cellular anti-proliferative IC50, about 72 hours, medium with 10% FBS, ATPlite; read-out: RS411-G101V IC50
Protocol: Cell antiproliferation was assayed by PerkinElmer ATPlite™ Luminescence Assay System. Briefly, the various test cancer cell lines were plated at a density of about 1×10^4 cells per well in Costar 96-well plates, and were incubated with different concentrations of compounds for about 72 hours in medium supplemented with 10% FBS. One lyophilized substrate solution vial was then reconstituted by adding 5 mL of substrate buffer solution, and was agitated gently until the solution was homogeneous. About 50 μL of mammalian cell lysis solution was added to 100 μL of cell suspension per well of a microplate, and the plate was shaken for about five minutes in an orbital shaker at ˜700 rpm. This procedure was used to lyse the cells and to stabilize the ATP. Next, 50 μL substrate solution was added to the wells and microplate was shaken for five minutes in an orbital shaker at ˜700 rpm. Finally, the luminescence was measured by a PerkinElmer TopCount® Microplate Scintillation Counter. Such assays, carried out with a range of doses of test compounds, allowed the determination of the cellular anti-antiproliferative IC50 of the compounds of the present invention.
The following table lists the IC50 values of another study for certain compounds of the invention.

Question: With “4-(2-((R)-2-(2-isopropoxyphenyl)-4-((S)-tetrahydro-2H-pyran-3-yl)piperazin-1-yl)-7-azaspiro[3.5]nonan-7-yl)-N-(((R)-5-nitro-3-(tetrahydro-2H-pyran-4-yl)-3,4-dihydro-2H-benzo[b][1,4]oxazin-7-yl)sulfonyl)-2-((5aS,9aR)-6,7,9,9a-tetrahydro-1H-pyrano[3,4-b]pyrrolo[3′,2′:5,6]pyrido[3,2-e][1,4]oxazin-5(5aH)-yl)benzamide [Example 208]” as the compound, how does the IC50 read?
Answer: The IC50 was 72.7 nM.

Question: Which IC50 does the source give for `COc1ccc(CN2CCN(C3CC4(CCN(c5ccc(C(=O)NS(=O)(=O)c6ccc(NC[C@H]7CC[C@](C)(O)CC7)c([N+](=O)[O-])c6)c(N6c7cc8cc[nH]c8nc7O[C@H]7COCC[C@@H]76)c5)CC4)C3)[C@@H](c3ccccc3OC(C)C)C2)cc1` [Example 99, 2-[(3R,8S)-2,5-dioxa-9,15,17-triazatetracyclo[8.7.0.0^{3,8}.0^{12,16}]heptadeca-1(10),11,13,16-tetraen-9-yl]-4-{2-[(2S)-2-(2-isopropoxyphenyl)-4-[(4-methoxyphenyl)methyl]piperazin-1-yl]-7-azaspiro[3.5]nonan-7-yl}-N-[3-nitro-4-({[(1r,4r)-4-hydroxy-4-methylcyclohexyl]methyl}amino)benzenesulfonyl]benzamide] here?
Answer: Its IC50 is 38.5 nM.

Question: With `CC(C)Oc1ccccc1[C@H]1CN(Cc2ccc(N3CCOCC3)nc2)CCN1C1CC2(CCN(c3ccc(C(=O)NS(=O)(=O)c4ccc(NCC5CCC(C)(O)CC5)c([N+](=O)[O-])c4)c(N4c5cc6cc[nH]c6nc5O[C@H]5COCC[C@@H]54)c3)CC2)C1` (stereo partly drawn) [Example 100, 2-[(3R,8S)-2,5-dioxa-9,15,17-triazatetracyclo[8.7.0.0^{3,8}.0^{12,16}]heptadeca-1(10),11,13,16-tetraen-9-yl]-4-{2-[(2S)-2-(2-isopropoxyphenyl)-4-{[6-(morpholin-4-yl)pyridin-3-yl]methyl}piperazin-1-yl]-7-azaspiro[3.5]nonan-7-yl}-N-[3-nitro-4-({[(1r,4r)-4-hydroxy-4-methylcyclohexyl]methyl}amino)benzenesulfonyl]benzamide] as the compound, how does the IC50 read?
Answer: The IC50 was 16.1 nM.

Question: With `COc1cc(CN2CCN(C3CC4(CCN(c5ccc(C(=O)NS(=O)(=O)c6ccc(NCC7CCC(C)(O)CC7)c([N+](=O)[O-])c6)c(N6c7cc8cc[nH]c8nc7O[C@H]7COCC[C@@H]76)c5)CC4)C3)[C@@H](c3ccccc3OC(C)C)C2)cnc1N1CCOCC1` (stereo partly drawn) [Example 101, N-((4-((((1r,4r)-4-hydroxy-4-methylcyclohexyl)methyl)amino)-3-nitrophenyl)sulfonyl)-4-(2-((S)-2-(2-isopropoxyphenyl)-4-((5-methoxy-6-morpholinopyridin-3-yl)methyl)piperazin-1-yl)-7-azaspiro[3.5]nonan-7-yl)-2-((5aS,9aR)-6,7,9,9a-tetrahydro-1H-pyrano[3,4-b]pyrrolo[3′,2′:5,6]pyrido[3,2-e][1,4]oxazin-5(5aH)-yl)benzamide] as the compound, how does the IC50 read?
Answer: The IC50 was 12.9 nM.

Question: For `COc1ccc(CN2CCN(C3CC4(CCN(c5ccc(C(=O)NS(=O)(=O)c6ccc(NCC7CCC(C)(O)CC7)c([N+](=O)[O-])c6)c(N6c7cc8cc[nH]c8nc7O[C@H]7COCC[C@@H]76)c5)CC4)C3)[C@@H](c3ccccc3OC(C)C)C2)cn1` (stereo partly drawn) [Example 102, 2-[(3R,8S)-2,5-dioxa-9,15,17-triazatetracyclo[8.7.0.0^{3,8}.0^{12,16}]heptadeca-1(10),11,13,16-tetraen-9-yl]-4-{2-[(2S)-2-(2-isopropoxyphenyl)-4-[(6-methoxypyridin-3-yl)methyl]piperazin-1-yl]-7-azaspiro[3.5]nonan-7-yl}-N-[3-nitro-4-({[(1r,4r)-4-hydroxy-4-methylcyclohexyl]methyl}amino)benzenesulfonyl]benzamide], which IC50 is on record?
Answer: Its IC50 is 18 nM.

Question: With `COc1ccc(CN2CCN(C3CC4(CCN(c5ccc(C(=O)NS(=O)(=O)c6ccc(NCC7CCC(C)(O)CC7)c([N+](=O)[O-])c6)c(N6c7cc8cc[nH]c8nc7O[C@H]7COCC[C@@H]76)c5)CC4)C3)[C@@H](c3ccccc3OC(C)C)C2)nc1` (stereo partly drawn) [Example 103, 2-[(3R,8S)-2,5-dioxa-9,15,17-triazatetracyclo[8.7.0.0^{3,8}.0^{12,16}]heptadeca-1(10),11,13,16-tetraen-9-yl]-4-{2-[(2S)-2-(2-isopropoxyphenyl)-4-[(5-methoxypyridin-2-yl)methyl]piperazin-1-yl]-7-azaspiro[3.5]nonan-7-yl}-N-[3-nitro-4-({[(1r,4r)-4-hydroxy-4-methylcyclohexyl]methyl}amino)benzenesulfonyl]benzamide] as the compound, how does the IC50 read?
Answer: Its IC50 is 35.1 nM.

Question: `COc1cc(CN2CCN(C3CC4(CCN(c5ccc(C(=O)NS(=O)(=O)c6ccc(NCC7CCC(C)(O)CC7)c([N+](=O)[O-])c6)c(N6c7cc8cc[nH]c8nc7O[C@H]7COCC[C@@H]76)c5)CC4)C3)[C@@H](c3ccccc3OC(C)C)C2)cnc1OC` (stereo partly drawn) [Example 104, 4-{2-[(2S)-4-[(5,6-dimethoxypyridin-3-yl)methyl]-2-(2-isopropoxyphenyl)piperazin-1-yl]-7-azaspiro[3.5]nonan-7-yl}-2-[(3R,8S)-2,5-dioxa-9,15,17-triazatetracyclo[8.7.0.0^{3,8}.0^{12,16}]heptadeca-1(10),11,13,16-tetraen-9-yl]-N-[3-nitro-4-({[(1r,4r)-4-hydroxy-4-methylcyclohexyl]methyl}amino)benzenesulfonyl]benzamide] was tested. Which IC50 did it give?
Answer: Its IC50 is 6.9 nM.

Question: Which IC50 does the source give for `COc1ccc(CN2CCN(C3CC4(CCN(c5ccc(C(=O)NS(=O)(=O)c6ccc(NC[C@H]7CC[C@](C)(O)CC7)c([N+](=O)[O-])c6)c(N6c7cc8cc[nH]c8nc7O[C@H]7COCC[C@@H]76)c5)CC4)C3)[C@@H](c3ccccc3OC(C)C)C2)nc1OC` [Example 105, 4-{2-[(2S)-4-[(5,6-dimethoxypyridin-2-yl)methyl]-2-(2-isopropoxyphenyl)piperazin-1-yl]-7-azaspiro[3.5]nonan-7-yl}-2-[(3R,8S)-2,5-dioxa-9,15,17-triazatetracyclo[8.7.0.0^{3,8}.0^{12,16}]heptadeca-1(10),11,13,16-tetraen-9-yl]-N-[3-nitro-4-({[(1r,4r)-4-hydroxy-4-methylcyclohexyl]methyl}amino)benzenesulfonyl]benzamide] here?
Answer: Its IC50 is 19.3 nM.

Question: For `COc1nc(CN2CCN(C3CC4(CCN(c5ccc(C(=O)NS(=O)(=O)c6ccc(NCC7CCC(C)(O)CC7)c([N+](=O)[O-])c6)c(N6c7cc8cc[nH]c8nc7O[C@H]7COCC[C@@H]76)c5)CC4)C3)[C@@H](c3ccccc3OC(C)C)C2)ccc1C` (stereo partly drawn) [Example 106, 2-[(3R,8S)-2,5-dioxa-9,15,17-triazatetracyclo[8.7.0.0^{3,8}.0^{12,16}]heptadeca-1(10),11,13,16-tetraen-9-yl]-4-{2-[(2S)-2-(2-isopropoxyphenyl)-4-[(6-methoxy-5-methylpyridin-2-yl)methyl]piperazin-1-yl]-7-azaspiro[3.5]nonan-7-yl}-N-[3-nitro-4-({[(1r,4r)-4-hydroxy-4-methylcyclohexyl]methyl}amino)benzenesulfonyl]benzamide], which IC50 is on record?
Answer: The IC50 was 32.9 nM.

Question: Which IC50 does the source give for `CC(C)Oc1ccccc1[C@H]1CN(C2CCC(C)(O)CC2)CCN1C1CC2(CCN(c3ccc(C(=O)NS(=O)(=O)c4ccc(NCC5CCC(C)(O)CC5)c([N+](=O)[O-])c4)c(N4c5cc6cc[nH]c6nc5O[C@H]5COCC[C@@H]54)c3)CC2)C1` (stereo partly drawn) [Example 108, 2-[(3R,8S)-2,5-dioxa-9,15,17-triazatetracyclo[8.7.0.0^{3,8}.0^{12,16}]heptadeca-1(10),11,13,16-tetraen-9-yl]-4-{2-[(2S)-2-(2-isopropoxyphenyl)-4-[(1r,4r)-4-hydroxy-4-methylcyclohexyl]piperazin-1-yl]-7-azaspiro[3.5]nonan-7-yl}-N-[3-nitro-4-({[(1r,4r)-4-hydroxy-4-methylcyclohexyl]methyl}amino)benzenesulfonyl]benzamide] here?
Answer: Its IC50 is 7.2 nM.

Question: Which IC50 does the source give for `CC(C)Oc1ccccc1[C@H]1CN(C2CCC(C)(O)CC2)CCN1C1CC2(CCN(c3ccc(C(=O)NS(=O)(=O)c4ccc(NCC5CCC(C)(O)CC5)c([N+](=O)[O-])c4)c(N4c5cc6cc[nH]c6nc5O[C@H]5COCC[C@@H]54)c3)CC2)C1` (stereo partly drawn) [Example 109, 2-[(3R,8S)-2,5-dioxa-9,15,17-triazatetracyclo[8.7.0.0^{3,8}.0^{12,16}]heptadeca-1(10),11,13,16-tetraen-9-yl]-4-{2-[(2S)-2-(2-isopropoxyphenyl)-4-[(1s,4s)-4-hydroxy-4-methylcyclohexyl]piperazin-1-yl]-7-azaspiro[3.5]nonan-7-yl}-N-[3-nitro-4-({[(1r,4r)-4-hydroxy-4-methylcyclohexyl]methyl}amino)benzenesulfonyl]benzamide] here?
Answer: The IC50 was 17.2 nM.

Question: With `COc1nc(CN2CCN(C3CC4(CCN(c5ccc(C(=O)NS(=O)(=O)c6ccc(NCC7CCC(C)(O)CC7)c([N+](=O)[O-])c6)c(N6c7cc8cc[nH]c8nc7O[C@H]7COCC[C@@H]76)c5)CC4)C3)[C@@H](c3ccccc3OC(C)C)C2)cc2c1OCCC2(C)C` (stereo partly drawn) [Example 110, 2-[(3R,8S)-2,5-dioxa-9,15,17-triazatetracyclo[8.7.0.0^{3,8}.0^{12,16}]heptadeca-1(10),11,13,16-tetraen-9-yl]-4-{2-[(2S)-2-(2-isopropoxyphenyl)-4-({8-methoxy-4,4-dimethyl-2H,3H-pyrano[2,3-c]pyridin-6-yl}methyl)piperazin-1-yl]-7-azaspiro[3.5]nonan-7-yl}-N-[3-nitro-4-({[(1r,4r)-4-hydroxy-4-methylcyclohexyl]methyl}amino)benzenesulfonyl]benzamide hydrochloride] as the compound, how does the IC50 read?
Answer: Its IC50 is 23.8 nM.
